Test system: athymic nude mice (NU/J Foxn1nu)
Assay: Hair growth in athymic nude mice (topical, 28 days)
Assay type: in vivo
Details: for H&E skin histopathology finding / hair follicle grade: day 28; for early onset of hair: topical
Procedure: The groups are as follows: Group 1-Control (untreated), Group 2-Vehicle control, Group 3-tofacitinib citrate (0.8 mg/Kg), Group 4-tofacitinib citrate (0.08 mg/Kg), Group 5-MJ04 (0.08 mg/Kg), Group 6-MJ04 (0.04 mg/Kg), Group 7-MJ04 (0.016 mg/Kg), Group 8-baricitinib (0.1 mg/Kg), Group 9-baricitinib (0.04 mg/Kg), and Group 10-baricitinib (0.02 mg/Kg). At the end of the experiment, skin samples were collected and preserved in 10% neutral buffered formalin for tissue sectioning and staining using haematoxylin and eosin (H&E). The histopathological examinations were performed under the 10× and 40× objectives of light microscope (Magnus, Mx21i), and hair follicles were graded on a scale of 0 to 4 (++++).
The skin samples collected from athymic nude mice (NU/J Foxn1^nu) were preserved in 10% neutral buffered formalin and processed for tissue sectioning. The skin sections (10 µm) of nude mice were stained using haematoxylin and eosin (H&E) and viewed under 10× and 40× objectives of the light microscope (Magnus, Mx21i). The histopathological examination of the samples was performed, and the hair follicles in the skin sections were graded on a scale of 0 to 4 (++++).

Row | Structure (SMILES) | H&E skin histopathology finding (0.02 mg/kg) | hair follicle grade (0.02 mg/kg) | H&E skin histopathology finding (0.04 mg/kg) | hair follicle grade (0.04 mg/kg) | H&E skin histopathology finding (0.1 mg/kg) | hair follicle grade (0.1 mg/kg) | early onset of hair | H&E skin histopathology finding (0.016 mg/kg) | hair follicle grade (0.016 mg/kg) | H&E skin histopathology finding (0.08 mg/kg) | hair follicle grade (0.08 mg/kg)
1 | CCS(=O)(=O)N1CC(CC#N)(n2cc(-c3ncnc4[nH]ccc34)cn2)C1 [Baricitinib, baricitinib, reference compound] | Moderate degree of epidermal thickening | ++++ (graded on a scale ranging from 0 to 4 (++++)) | Moderate degree of epidermal thickening | ++++ (graded on a scale ranging from 0 to 4 (++++)) | Increased and morphologically distinct hair follicles | +++ (graded on a scale ranging from 0 to 4 (++++)) | 12 days |  |  |  | 
2 | Fc1ccc(-c2cnc3[nH]cc(-c4ccnc(NC5CC5)n4)c3c2)cc1 [MJ04] |  |  | Mild epidermal thinning with increased hair follicles in the dermis and hypodermis | ++++ (graded on a scale ranging from 0 to 4 (++++)) |  |  | 12 days | Mild epidermal thickening with increased hair follicles | +++ (graded on a scale ranging from 0 to 4 (++++)) | Minimal epidermal thickening with moderate hair follicle | ++ (graded on a scale ranging from 0 to 4 (++++))
